Experimental data from patent US8017630B2 (priority 2004, dated 2011).
Where two headings read alike, the source gives them in different places.

Experiments:
[1] = system: 5HT uptake; type: biochemical, rat
[2] = system: NA uptake; type: biochemical, rat

Compound | 5HT uptake % (10) ([1]; hydrochloride) [%] | melting point [°C] | NA uptake % (10) ([2]; hydrochloride) [%] | 5HT uptake % (10) [1] [%] | NA uptake % (10) [2] [%]
CN(C)C1(c2ccccn2)CCC(CC(=O)NCCc2c[nH]c3ccccc23)CC1.Cl (centres unmarked) [Example 47, 2-(4-Dimethylamino-4-pyridin-2-ylcyclohexyl)-N-[2-(1H-indol-3-yl)ethyl]acetamide hydrochloride] | 46 | 150 to 153 | 63 |  | 
CN(C)C1(c2ccccn2)CCC(CC(=O)NCCc2c[nH]c3ccccc23)CC1.Cl (centres unmarked) [Example 48, 2-(4-Dimethylamino-4-pyridin-2-ylcyclohexyl)-N-[2-(1H-indol-3-yl)ethyl]acetamide hydrochloride] | 85 |  | 74 |  | 
CN(C)C1(c2ccccn2)CCC(CC(=O)NCCCc2ccccc2)CC1.Cl (centres unmarked) [Example 49, 2-(4-Dimethylamino-4-pyridin-2-ylcyclohexyl)-N-(3-phenylpropyl)acetamide hydrochloride] |  | 218 to 220 |  | 32 | 94
